From patent US20230051589A1, “COMPOUNDS AND COMPOSITIONS FOR TREATING CONDITIONS ASSOCIATED WITH NLRP ACTIVITY” (Novartis AG, priority 2018, published 2023)
Read-outs that look alike come from different tables or passages of the source. Values belong to the compound of their own block, whether it stands above or below them.

Tested on: IL-1β production in PMA-differentiated THP-1 cells
Assay: IL-1β production in PMA-differentiated THP-1 cells stimulated with gramicidin (hTHP-1 assay, 2% fetal bovine serum; Procedures 1-3)
Assay type: cell-based, human
Procedure, shortened: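 PMA-primed THP-1 cells (20 ng/ml PMA, 16-18 h) in RPMI with 2% FBS were pre-incubated with compounds for 1 h, from 100 μM downward in 3-fold steps (0.37% DMSO final), then stimulated with 5 μM gramicidin for 2 h. IL-1β in the supernatant was quantified by HTRF.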

[1] = Table B3, hTHP-1 assay containing 2% fetal bovine serum, gramicidin stimulation, IL-1β readout, read-out: hTHP-1 IC50
[2] = hTHP-1 assay containing 2% fetal bovine serum, Table B2, class symbols, read-out: IC50
[3] = Homo sapiens, THP-1, hTHP-1 assay containing 2% fetal bovine serum, Table B2, class symbols, read-out: IC50

Compound: CN(C)C(c1ccc(S(N)(=O)=NC(=O)Nc2c3c(cc4c2CCC4)CCC3)cc1)C1CC1 (single isomer, unassigned) [Example 659]
IC50 [2]: 5 to 30 µM

Compound: CC(O)(CO)c1cc(F)c(S(N)(=O)=NC(=O)Nc2c3c(c(C#N)c4c2CCC4)CCC3)s1 (single isomer, unassigned) [Example 632]
IC50 [2]: 5 to 30 µM

Compound: NS(=O)(=NC(=O)Nc1c2c(cc3c1CCC3)CCC2)c1ccc(C2CCCN2)cc1 (single isomer, unassigned) [Example 648, (R,R) or (S,R)-N′-((1,2,3,5,6,7-hexahydro-s-indacen-4-yl)carbamoyl)-4-(pyrrolidin-2-yl) benzenesulfonimidamide]
IC50 [3]: 1 to 5 µM

Compound: CC(O)(CO)c1ncc(S(N)(=O)=NC(=O)Nc2c3c(c(C#N)c4c2CCC4)CCC3)s1 (single isomer, unassigned) [Example 634]
IC50 [2]: 0.2 to 1 µM

Compound: NS(=O)(=NC(=O)Nc1c2c(cc3c1CCC3)CCC2)c1sc(CNC2CCC2)cc1F (centres unmarked) [Compound 898]
IC50 [3]: 0.2 to 1 µM

Compound: CN1CCc2sc(S(N)(=O)=NC(=O)Nc3c4c(cc5c3CCC5)CCC4)cc2C1 (single isomer, unassigned) [Example 687, (R) or (S)-N′-((1,2,3,5,6,7-hexahydro-s-indacen-4-yl)carbamoyl)-5-methyl-4,5,6,7-tetrahydrothieno [3,2-c]pyridine-2-sulfonimidamide]
IC50 [2]: 0.04 to 0.2 µM

Compound: CC(OC(F)F)c1ccc(S(N)(=O)=NC(=O)Nc2c3c(cc4c2CCC4)CCC3)cc1 (single isomer, unassigned) [Example 641]
IC50 [2]: 1 to 5 µM

Compound: CC(C)(O)c1csc(S(N)(=O)=NC(=O)Nc2c3c(cc4c2CCC4=O)CCC3)c1 (single isomer, unassigned) [Example 598, (R) or (S)-4-(2-hydroxypropan-2-yl)-N′-((1-oxo-1,2,3,5,6,7-hexahydro-s-indacen-4-yl)carbamoyl) thiophene-2-sulfonimidamide]
IC50 [2]: 0.2 to 1 µM

Compound: CNCc1cc(F)c(S(N)(=O)=NC(=O)Nc2c3c(cc4c2CCC4)CCC3)s1 (single isomer, unassigned) [Compound 412a]
IC50 (Homo sapiens, THP-1, Table B1, hTHP-1 assay containing 2% fetal bovine serum, gramicidin stimulation, IL-1β readout, read-out: hTHP-1 IC50 (average)): 0.04 to 0.2 µM

Next, values leading:

IC50 [1]: 1 to 5 µM
Compound: COCCOC[C@@](C)(O)c1ncc(S(N)(=O)=NC(=O)Nc2c3c(cc4c2CCC4)CCC3)s1 (single isomer, unassigned) [Example 793, (S) or (R)-N′-((1,2,3,5,6,7-hexahydro-s-indacen-4-yl)carbamoyl)-2-((R)-2-hydroxy-1-(2-methoxyethoxy)propan-2-yl)thiazole-5-sulfonimidamide]

IC50 [1]: 0.2 to 1 µM
Compound: CC(C)(O)c1ccc(S(N)(=O)=NC(=O)Nc2c3c(cc4c2C(=O)CC4)CCC3)cn1 (single isomer, unassigned) [Example 832, (R) or (S)-6-(2-hydroxypropan-2-yl)-N′-((3-oxo-1,2,3,5,6,7-hexahydro-s-indacen-4-yl)carbamoyl)pyridine-3-sulfonimidamide]

IC50 [1]: > 30 µM
Compound: CN1CCCC(c2ccc(S(N)(=O)=NC(=O)Nc3c4c(cc5c3CC5)CCC4)c(F)c2)C1 (single isomer, unassigned) [Example 861, (S, S) or (R, S)-2-fluoro-4-(1-methylpiperidin-3-yl)-N′-((2,4,5,6-tetrahydro-1H-cyclobuta[f]inden-3-yl)carbamoyl)benzenesulfonimidamide]

IC50 (Homo sapiens, THP-1, Table B3, hTHP-1 assay containing 2% fetal bovine serum, gramicidin stimulation, IL-1β readout, read-out: hTHP-1 IC50): 1 to 5 µM
Compound: CN(C)CC(C)(C)c1ccc(S(N)(=O)=NC(=O)Nc2c3c(cc4c2CCC4)CCC3)cc1 (centres unmarked) [Example 764, 4-(1-(Dimethylamino)-2-methylpropan-2-yl)-N′-((1,2,3,5,6,7-hexahydro-s-indacen-4-yl)carbamoyl)benzenesulfonimidamide]

IC50 [1]: 5 to 30 µM
Compound: NS(=O)(=NC(=O)Nc1c2c(cc3c1CCC3)CCC2)c1sc(CNC2CCC2)cc1F (single isomer, unassigned) [Example 796, (S) or (R)-5-((cyclobutylamino)methyl)-3-fluoro-N′-((1,2,3,5,6,7-hexahydro-s-indacen-4-yl)carbamoyl)thiophene-2-sulfonimidamide]
